Laboratory results taken from patent US5344828A, “Piperazinealkanoic acid and a pharmaceutical composition comprising the same” (Hokuriku Pharmaceutical Co., Ltd., priority 1990, dated 1994).

Assays:
[1] = target: T1, contractile response induced by histamine in isolated guinea-pig ileum (Cavia porcellus, UniProt P31389); experiment: Antihistaminic activity (Effect on the contractile response induced by histamine in isolated guinea-pig ileum); parameters: species or system guinea-pig (male Hartley); conditions: dissociation constant KB (M), method of Furchgott, 30 min contact with test compound, 28° C.
T1 construct: An approximately 20 mm strip of isolated ileum was mounted vertically; from tissue; host or cells: isolated ileum strip, male Hartley guinea-pig
T1 sequence (P31389 whole entry): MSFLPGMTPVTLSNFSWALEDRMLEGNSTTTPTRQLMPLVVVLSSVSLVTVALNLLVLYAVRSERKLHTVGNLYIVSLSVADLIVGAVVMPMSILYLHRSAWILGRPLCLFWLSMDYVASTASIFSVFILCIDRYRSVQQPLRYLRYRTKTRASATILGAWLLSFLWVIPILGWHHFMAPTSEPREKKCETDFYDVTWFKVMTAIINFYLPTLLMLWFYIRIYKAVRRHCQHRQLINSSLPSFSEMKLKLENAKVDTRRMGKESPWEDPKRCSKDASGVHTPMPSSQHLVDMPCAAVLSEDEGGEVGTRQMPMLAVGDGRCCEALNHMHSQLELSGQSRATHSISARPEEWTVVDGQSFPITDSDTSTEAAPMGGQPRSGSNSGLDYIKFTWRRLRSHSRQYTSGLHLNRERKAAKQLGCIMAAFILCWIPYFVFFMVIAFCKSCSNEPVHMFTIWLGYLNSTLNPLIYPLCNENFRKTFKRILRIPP
Method: 1. Antihistaminic activity (Effect on the contractile response induced by histamine in isolated guinea-pig ileum)
Male Hartley guinea-pigs, 5-8 weeks of age, were sacrificed and the ileum was excised. […] The contractile response was recorded on a recticorder an isotonic transducer. The concentration-contractile response curve to histamine was constructed before and after 30 min contact with test compounds.

[2] = tested on: 48 hr homologous passive cutaneous anaphylaxis (PCA) in rat; experiment: Antiallergic activity (48 hr homologous passive cutaneous anaphylaxis (PCA) in rat); format: in vivo, rat (male Wistar); conditions: oral, 1 hr before antigen challenge, vs control group, read-out: Inhibition rate (%) of PCA
Method: 2. Antiallergic activity (48 hr homologous passive cutaneous anaphylaxis (PCA) in rat)
Male Wistar rats, 6 weeks of age, were passively sensitized by intracutaneous injection in the back of a volume of 0.1 ml of anti-DNP-As rat serum. Forty-eight hours later, the animals were administered an intravenous injection of 0.5 ml saline solution containing 1 mg of DNP-As and 5 mg of Evans blue. The animals were sacrificed 30 min after the injection and the extravasated dye was extracted with 1N KOH and acetone, neutralized with 1N H3 PO4 and the absorbance at 620 nm was determined. The test compounds were administered orally in a dose of 1 mg/Kg 1 hr before antigen challenge. The inhibitory activity of a test compound was expressed as percent inhibition of PCA as compared with the control group.

| Compound | Kb [1] | inhibition at 1 mg/kg [2] |
| --- | --- | --- |
| CN1CCN(C2=Nc3ccccc3Sc3ccc(Cl)cc32)CC1 [Clothiapine, reference compound] | 1.35e-09 M | – |
| CCOC(=O)CCCCN1CCN(C2=Nc3ccccc3Sc3ccc(Cl)cc32)CC1 [Example 16, Ethyl 4-(2-Chlorodibenzo[b,f][1,4]thiazepin-11-yl)-1-piperazinevalerate] | 4.68e-08 M | – |
| CCOC(=O)CCN1CCN(C2=Nc3ccccc3Sc3ccc(Cl)cc32)CC1 [Example 13, Ethyl 4-(2-Chlorodibenzo[b,f][1,4]thiazepin-11-yl)-1-piperazinepropionate] | 5.13e-08 M | – |
| CCOC(=O)CCCCCN1CCN(C2=Nc3ccccc3Oc3ccc(Cl)cc32)CC1 [Example 6] | 3.09e-09 M | – |
| O=C(O)CCCN1CCN(C2=Nc3ccccc3Oc3ccc(Cl)cc32)CC1 [Example 9, 4-(2-Chlorodibenz[b,f][1,4]oxazepin-11-yl)-1-piperazinebutyric acid] | 4.79e-08 M | 95.8% |
| O=C(O)CCN1CCN(C2=Nc3ccccc3Oc3ccc(Cl)cc32)CC1 [Example 8, 4-(2-Chlorodibenz[b,f][1,4]oxazepin-11-yl)-1-piperazinepropionic acid] | 5.01e-08 M | 88.6% |
| CCOC(=O)CCCCCN1CCN(C2=Nc3ccccc3Sc3ccc(Cl)cc32)CC1 [Example 17, Ethyl 4-(2-Chlorodibenzo[b,f][1,4]thiazepin-11-yl)-1piperazinecaproate] | 5.5e-08 M | – |
| CCOC(=O)CCN1CCN(C2=Nc3ccccc3Oc3ccc(Cl)cc32)CC1 [Example 2, Ethyl 4-(2-Chlorodibenz[b,f][1,4]oxazepin-11-yl)-1-piperazinepropionate] | 1.2e-08 M | – |
| CCOC(=O)CCCCN1CCN(C2=Nc3ccccc3Oc3ccc(Cl)cc32)CC1 [Example 5, Ethyl 4-(2-Chlorodibenz[b,f][1,4]oxazepin-11-yl)-1-piperazinevalerate] | 1.05e-08 M | – |
| Clc1ccc2c(c1)C(N1CCNCC1)=Nc1ccccc1O2 [Amoxapine, reference compound] | – | 50.9% |
| O=C(O)CCCCCN1CCN(C2=Nc3ccccc3Oc3ccc(Cl)cc32)CC1 [Example 11] | – | 86.4% |
| CCOC(=O)CCCN1CCN(C2=Nc3ccccc3Oc3ccc(Cl)cc32)CC1 [Example 4, Ethyl 4-(2-Chlorodibenz[b,f][1,4]oxazepin-11-yl)-1-piperazinebutyrate] | 4.9e-09 M | – |
| CCOC(=O)CCCN1CCN(C2=Nc3ccccc3Sc3ccc(Cl)cc32)CC1 [Example 15, Ethyl 4-(2-Chlorodibenzo [b,f][1,4]thiazepin-11-yl)-1-piperazinebutyrate] | 3.02e-08 M | – |
| CN1CCN2c3ccccc3Cc3ccccc3C2C1 (stereo not shown) [Mianserin, reference compound] | – | 61.4% |
| O=C(O)CCN1CCN(C2=Nc3ccccc3Sc3ccc(Cl)cc32)CC1 [Example 19, 4-(2-Chlorodibenzo[b,f][1,4]thiazepin-11-yl)-1-piperazinepropionic acid] | 5.25e-08 M | 64.6% |
| O=C(O)CCCCN1CCN(C2=Nc3ccccc3Oc3ccc(Cl)cc32)CC1 [Example 10, 4-(2-Chlorodibenz[b,f][1,4]oxazepin-11-yl)-1-piperazinevaleric acid] | 5.5e-08 M | 84.1% |

More lines, main results first:

| Kb [1] | Compound | inhibition at 1 mg/kg [2] |
| --- | --- | --- |
| 2.4e-09 M | CCOC(=O)CCCN1CCN2c3ccccc3Cc3ccccc3C2C1 (stereo not shown) [Example 37, Ethyl 4-(1,2,3,4,10,14b-Hexahydrodibenzo[c,f]pyrazino[1,2-a]azepin-2-yl)butyrate] | – |
| 1.74e-08 M | CCOC(=O)CCCCCN1CCN(C2=Nc3ccccc3Cc3ccccc32)CC1 [Example 28, Ethyl 4-(11H-Dibenz[b,e]azepin-6-yl)-1-piperazinecaproate] | – |
| 2.51e-08 M | O=C(O)CCN1CCN2c3ccccc3Cc3ccccc3C2C1 (stereo not shown) [Example 41, 3-(1,2,3,4,10,14b-Hexahydrodibenzo[c,f]pyrazino[1,2-a]azepin-2-yl)propionicacid] | 76.5% |
| 5.75e-08 M | O=C(O)CCCCN1CCN(C2=Nc3ccccc3Cc3ccccc32)CC1 [Example 32, 4-(11H-Dibenz[b,e]azepin-6-yl)-1-piperazinevaleric acid] | – |
| 1.35e-08 M | CCOC(=O)CCCN1CCN(C2=Nc3ccccc3Cc3ccccc32)CC1 [Example 26, Ethyl 4-(11H-Dibenz[b,e]azepin-6-yl)-1-piperazinebutyrate] | – |
| 2.69e-09 M | CCOC(=O)CCN1CCN2c3ccccc3Cc3ccccc3C2C1 (stereo not shown) [Example 35, Ethyl 3-(1,2,3,4,10,14b-Hexahydrodibenzo[c,f]pyrazino[1,2-a]azepin-2-yl)propionate] | – |
| 4.57e-08 M | CCOC(=O)CN1CCN(C2=Nc3ccccc3Cc3ccccc32)CC1 [Example 25, Ethyl 4-(11H-Dibenz[b,e]azepin-6-yl)-1-piperazineacetate] | – |
| 1.29e-08 M | CCOC(=O)CCCCCN1CCN2c3ccccc3Cc3ccccc3C2C1 (stereo not shown) [Example 39, Ethyl 6-(1,2,3,4,10,14b-Hexahydrodibenzo[c,f]Pyrazino[1,2-a]azepin-2-yl)caproate] | – |
| 7.08e-10 M | CN1CCN(C2=Nc3ccccc3Cc3ccccc32)CC1 [Perlapine, reference compound] | – |
| 5.89e-08 M | O=C(O)CCCCN1CCN(C2=Nc3ccccc3Sc3ccc(Cl)cc32)CC1 [Example 21, 4-(2-Chlorodibenzo [b,f][1,4]thiazepin-11-yl)-1-piperazinevaleric acid] | 78.5% |
| 8.91e-09 M | CCOC(=O)CCN1CCN(C2=Nc3ccccc3Cc3ccccc32)CC1 [Example 24, Ethyl 4-(11H-Dibenz[b,e]azepin-6-yl)-1-piperazinepropionate] | – |
| 7.94e-09 M | CCOC(=O)CCCCN1CCN(C2=Nc3ccccc3Cc3ccccc32)CC1 [Example 27, Ethyl 4-(11H-Dibenz[b,e]azepin-6-yl)-1-piperazinevalerate] | – |
| 5.75e-08 M | O=C(O)CCN1CCN(C2=Nc3ccccc3Cc3ccccc32)CC1 [Example 30, 4-(11H-Dibenz[b,e]azepin-6-yl)-1-piperazinepropionic acid] | – |
| 4.79e-08 M | O=C(O)CCCCN1CCN2c3ccccc3Cc3ccccc3C2C1 (stereo not shown) [Example 43, 5-(1,2,3,4,10,14b-Hexahydrodibenzo[c,f]pyrazino[1,2-a]azepin-2-yl)valeric acid] | 73.9% |
| 1.1e-08 M | CCOC(=O)CCCCN1CCN2c3ccccc3Cc3ccccc3C2C1 (stereo not shown) [Example 38, Ethyl 5-(1,2,3,4,10,14b-Hexahydrodibenzo[c,f]pyrazino[1,2-a]azepin-2-yl)valerate] | – |
| 3.24e-08 M | O=C(O)CCCCCN1CCN2c3ccccc3Cc3ccccc3C2C1 (stereo not shown) [Example 44, 6-(1,2,3,4,10,14b-Hexahydrodibenzo[c,f]pyrazino[1,2-a]azepin-2-yl)caproic acid] | 71.8% |
| 3.47e-08 M | O=C(O)CCCCCN1CCN(C2=Nc3ccccc3Sc3ccc(Cl)cc32)CC1 [Example 22, 4-(2-Chlorodibenzo[b,f][1,4]thiazepin-11-yl)-1-piperazinecaproic acid] | 77.2% |
| 3.09e-08 M | O=C(O)CCCN1CCN2c3ccccc3Cc3ccccc3C2C1 (stereo not shown) [Example 42, 4-(1,2,3,4,10,14b-Hexahydrodibenzo[c,f]pyrazino[1,2-a]azepin-2-yl)butyric acid] | 65.6% |
| 2.69e-08 M | O=C(O)CCCCCN1CCN(C2=Nc3ccccc3Cc3ccccc32)CC1 [Example 33, 4-(11H-Dibenz[b,e]azepin-6-yl)-1-piperazinecaproic acid] | – |
| 3.24e-08 M | CCOC(=O)CN1CCN2c3ccccc3Cc3ccccc3C2C1 (stereo not shown) [Example 36, Ethyl 2-(1,2,3,4,10,14b-Hexahydrodibenzo[c,f]pyrazino[1,2-a]azepin-2-yl)acetate] | – |
| 1.82e-08 M | O=C(O)CN1CCN2c3ccccc3Cc3ccccc3C2C1 (stereo not shown) [Example 40, 2-(1,2,3,4,10,14b-Hexahydrodibenzo[c,f]pyrazino[1,2-a]azepin-2-yl)acetic acid] | – |
| 5.75e-08 M | O=C(O)CCCN1CCN(C2=Nc3ccccc3Sc3ccc(Cl)cc32)CC1 [Example 20, 4-(2-Chlorodibenzo[b,f][1,4]thiazepin-11-yl)-1-piperazinebutyric acid] | 77.7% |
